Article PMC6268991, “Impact of Halogen Substituents on Interactions between 2-Phenyl-2,3-dihydroqulinazolin-4(1H)-one Derivatives and Human Serum Albumin” (Molecules, 2012)

The compounds below were run against T1, human serum albumin (HSA) (Homo sapiens, UniProt P02768) (assay: intrinsic fluorescence quenching, modified Stern-Volmer). Settings: 298 K, pH 7.4, 0.1 M Tris, 0.1 M NaCl, 1 µM HSA, ex 280 / em 337 nm; site II (subdomain IIIA), no site marker.
T1 construct: gene ALB
Type: binding
From the text: intrinsic fluorescence quenching, modified Stern-Volmer on human serum albumin (HSA)

T1 sequence (P02768 25-609): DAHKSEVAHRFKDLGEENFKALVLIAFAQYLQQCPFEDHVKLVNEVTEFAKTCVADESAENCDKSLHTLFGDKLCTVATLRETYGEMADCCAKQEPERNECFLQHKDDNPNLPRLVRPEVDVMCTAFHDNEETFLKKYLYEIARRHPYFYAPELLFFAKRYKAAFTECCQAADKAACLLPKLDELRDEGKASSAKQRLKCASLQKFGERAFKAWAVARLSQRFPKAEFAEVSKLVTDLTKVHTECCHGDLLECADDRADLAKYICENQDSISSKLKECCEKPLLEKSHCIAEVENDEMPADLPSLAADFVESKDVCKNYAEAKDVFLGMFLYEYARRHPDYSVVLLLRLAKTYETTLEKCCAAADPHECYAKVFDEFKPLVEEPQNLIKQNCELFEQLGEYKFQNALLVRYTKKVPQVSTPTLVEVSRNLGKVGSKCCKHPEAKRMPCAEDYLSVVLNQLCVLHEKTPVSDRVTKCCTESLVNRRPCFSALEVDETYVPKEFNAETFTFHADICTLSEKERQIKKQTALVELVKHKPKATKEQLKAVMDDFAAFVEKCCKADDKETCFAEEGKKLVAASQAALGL

**Q.** `CC(C)(C)CC(=O)N1c2ccc(Cl)cc2C(=O)N(N=Cc2ccc(Br)cc2)C1c1ccc(Br)cc1` (centres unmarked) [3d, 3-(4-Bromobenzylideneamino)-6-chloro-1-(3,3-dimethylbutanoyl)-2-(4-bromophenyl)-2,3-dihydroquinazolin-4(1H)-one] was tested. Which “Ka (×10^4 M^-1)” value did it give?
**A.** 4.37 ×10^4 M^−1

**Q.** How did the “Ka (×10^4 M^-1)” value turn out when `CC(C)(C)CC(=O)N1c2ccc(Cl)cc2C(=O)N(N=Cc2ccc(Cl)cc2)C1c1ccc(Cl)cc1` (centres unmarked) [3c, 3-(4-Chlorobenzylideneamino)-6-chloro-1-(3,3-dimethylbutanoyl)-2-(4-chlorophenyl)-2,3-dihydroquinazolin-4(1H)-one] was run?
**A.** 3.44 ×10^4 M^−1

**Q.** How did the “Ka (×10^4 M^-1)” value turn out when `CC(C)(C)CC(=O)N1c2ccc(Cl)cc2C(=O)N(N=Cc2ccc(F)cc2)C1c1ccc(F)cc1` (centres unmarked) [3b, 3-(4-Fluorobenzylideneamino)-6-chloro-1-(3,3-dimethylbutanoyl)-2-(4-fluorophenyl)-2,3-dihydroquinazolin-4 (1H)-one] was run?
**A.** 2.64 ×10^4 M^−1

**Q.** For `CC(C)(C)CC(=O)N1c2ccc(Cl)cc2C(=O)N(N=Cc2ccccc2)C1c1ccccc1` (centres unmarked) [3a, 3-(Benzylideneamino)-6-chloro-1-(3,3-dimethylbutanoyl)-2-phenyl-2,3-dihydroquinazolin-4(1H)-one], which “Ka (×10^4 M^-1)” value is on record?
**A.** 2.16 ×10^4 M^−1

**Q.** For `CC(C)(C)CC(=O)N1c2ccc(Cl)cc2C(=O)N(N=Cc2ccc(I)cc2)C1c1ccc(I)cc1` (centres unmarked) [3e, 3-(4-Iodobenzylideneamino)-6-chloro-1-(3,3-dimethylbutanoyl)-2-(4-iodophenyl)-2,3-dihydroquinazolin-4(1H)-one], which “Ka (×10^4 M^-1)” value is on record?
**A.** 7.21 ×10^4 M^−1
